# Assay results published in patent US11319299B2, “Substituted carboxamides as inhibitors of WDR5 protein-protein binding” (PROPELLON THERAPEUTICS INC., priority 2016, dated 2022).
# Biological target: WDR5 (Homo sapiens (Human), UniProt P61964)
# Test: Surface Plasmon Resonance (SPR) assay, KD and residence time
# Assay type: binding
# Conditions: surface plasmon resonance (SPR) assay; read-out: WDR5 binding affinity (KD)
row,Structure (SMILES),Kd
1,"C[C@@H]1CN(c2cc(F)c(-c3cnc(N4CCOCC4)nc3)cc2NC(=O)c2cc(Cl)c(F)c(Cl)c2)C[C@H](C)N1C [Example 212, 3,5-dichloro-4-fluoro-N-[4-fluoro-5-(2-morpholin-4-ylpyrimidin-5-yl)-2-[(3R,5S)-3,4,5-trimethylpiperazin-1-yl]phenyl]benzamide]",2.71 nM
2,"C[C@@H]1CN(c2cc(F)c(-c3cnc(N4CCOCC4)nc3)cc2NC(=O)c2cccc(Cl)c2Cl)C[C@H](C)N1C [Example 213, 2,3-dichloro-N-[4-fluoro-5-(2-morpholin-4-ylpyrimidin-5-yl)-2-[(3R,5S)-3,4,5-trimethylpiperazin-1-yl]phenyl]benzamide]",6.91 nM
3,"C[C@@H]1CN(c2cc(F)c(-c3cnc(N(C)C)c(C#N)c3)cc2NC(=O)c2c[nH]c(=O)cc2C(F)(F)F)C[C@H](C)N1C [Example 220, N-[5-[5-cyano-6-(dimethylamino)pyridin-3-yl]-4-fluoro-2-[(3R,5S)-3,4,5-trimethylpiperazin-1-yl]phenyl]-6-oxo-4-(trifluoromethyl)-1H-pyridine-3-carboxamide]",2.25 nM
4,"C[C@@H]1CN(c2cc(F)c(-c3cnc(N4CCOCC4)c(Cl)c3)cc2NC(=O)c2c[nH]c(=O)cc2C(F)(F)F)C[C@H](C)N1C [Example 222, N-[5-(5-chloro-6-morpholin-4-ylpyridin-3-yl)-4-fluoro-2-[(3R,5S)-3,4,5-trimethylpiperazin-1-yl]phenyl]-6-oxo-4-(trifluoromethyl)-1H-pyridine-3-carboxamide]",1.34 nM
5,"C[C@@H]1CN(c2cc(F)c(-c3cnc4c(c3)OCCO4)cc2NC(=O)c2c[nH]c(=O)cc2C(F)(F)F)C[C@H](C)N1C [Example 223, N-[5-(2,3-dihydro-[1,4]dioxino[2,3-b]pyridin-7-yl)-4-fluoro-2-[(3R,5S)-3,4,5-trimethylpiperazin-1-yl]phenyl]-6-oxo-4-(trifluoromethyl)-1H-pyridine-3-carboxamide]",1.63 nM
6,"CN1CCN(c2cc(F)c(-c3cnc(N4CCOCC4)nc3)cc2NC(=O)c2c[nH]c(=O)cc2C(F)(F)F)CC1(C)C [Example 225, N-[4-fluoro-5-(2-morpholin-4-ylpyrimidin-5-yl)-2-(3,3,4-trimethylpiperazin-1-yl)phenyl]-6-oxo-4-(trifluoromethyl)-1H-pyridine-3-carboxamide]",3000 nM
7,"C[C@@H]1CN(c2cc(F)c(-c3ccnc(N4CCOCC4)c3)cc2NC(=O)c2cn(C)c(=O)cc2C(F)(F)F)C[C@H](C)N1C [Example 226, N-[4-fluoro-5-(2-morpholin-4-ylpyridin-4-yl)-2-[(3R,5S)-3,4,5-trimethylpiperazin-1-yl]phenyl]-1-methyl-6-oxo-4-(trifluoromethyl)pyridine-3-carboxamide]",7.99 nM
8,"C[C@@H]1CN(c2cc(F)c(-c3ccc(N4CCCC4)cc3)cc2NC(=O)c2cn(C)c(=O)cc2C(F)(F)F)C[C@H](C)N1C [Example 227, N-[4-fluoro-5-(4-pyrrolidin-1-ylphenyl)-2-[(3R,5S)-3,4,5-trimethylpiperazin-1-yl]phenyl]-1-methyl-6-oxo-4-(trifluoromethyl)pyridine-3-carboxamide]",9.14 nM
9,"C[C@@H]1CN(c2cc(F)c(-c3ccc(OCC4CC4)cc3)cc2NC(=O)c2cn(C)c(=O)cc2C(F)(F)F)C[C@H](C)N1C [Example 228, N-[5-[4-(cyclopropylmethoxy)phenyl]-4-fluoro-2-[(3R,5S)-3,4,5-trimethylpiperazin-1-yl]phenyl]-1-methyl-6-oxo-4-(trifluoromethyl)pyridine-3-carboxamide]",7.26 nM
10,"C[C@@H]1CN(c2cc(F)c(-c3cnc(N4CCOCC4)nc3)cc2NC(=O)c2cccc(F)c2F)C[C@H](C)N1C [Example 229, 2,3-difluoro-N-[4-fluoro-5-(2-morpholin-4-ylpyrimidin-5-yl)-2-[(3R,5S)-3,4,5-trimethylpiperazin-1-yl]phenyl]benzamide]",83 nM
11,"C[C@@H]1CN(c2cc(F)c(C3=CCN(C4CCCC4)CC3)cc2NC(=O)c2c[nH]c(=O)cc2C(F)(F)F)C[C@H](C)N1C [Example 231, N-[5-(1-cyclopentyl-3,6-dihydro-2H-pyridin-4-yl)-4-fluoro-2-[(3R,5S)-3,4,5-trimethylpiperazin-1-yl]phenyl]-6-oxo-4-(trifluoromethyl)-1H-pyridine-3-carboxamide]",2.51 nM
12,"COc1ccc(C(C)N2CC=C(c3cc(NC(=O)c4c[nH]c(=O)cc4C(F)(F)F)c(N4C[C@@H](C)N(C)[C@@H](C)C4)cc3F)CC2)cc1 (stereo partly drawn) [Example 232, N-[4-fluoro-5-[1-[1-(4-methoxyphenyl)ethyl]-3,6-dihydro-2H-pyridin-4-yl]-2-[(3R,5S)-3,4,5-trimethylpiperazin-1-yl]phenyl]-6-oxo-4-(trifluoromethyl)-1H-pyridine-3-carboxamide]",2.72 nM
13,"CCC(C)N1CC=C(c2cc(NC(=O)c3c[nH]c(=O)cc3C(F)(F)F)c(N3C[C@@H](C)N(C)[C@@H](C)C3)cc2F)CC1 (stereo partly drawn) [Example 233, N-[5-(1-butan-2-yl-3,6-dihydro-2H-pyridin-4-yl)-4-fluoro-2-[(3R,5S)-3,4,5-trimethylpiperazin-1-yl]phenyl]-6-oxo-4-(trifluoromethyl)-1H-pyridine-3-carboxamide]",3.89 nM
14,"CN(C)[C@@H]1CCN(c2cc(F)c(-c3ccc(N4CCOCC4)nc3)cc2NC(=O)c2c[nH]c(=O)cc2C(F)(F)F)C1 [Example 234, N-[4-fluoro-5-(6-morpholin-4-ylpyridin-3-yl)-2-[(3R)-3-(dimethylamino)pyrrolidin-1-yl]phenyl]-6-oxo-4-(trifluoromethyl)-1H-pyridine-3-carboxamide]",1.86 nM
15,"C[C@@H]1CN(c2cc(F)c(C3=CCN(C4COC4)CC3)cc2NC(=O)c2c[nH]c(=O)cc2C(F)(F)F)C[C@H](C)N1C [Example 235, N-[4-fluoro-5-[1-(oxetan-3-yl)-3,6-dihydro-2H-pyridin-4-yl]-2-[(3R,5S)-3,4,5-trimethylpiperazin-1-yl]phenyl]-6-oxo-4-(trifluoromethyl)-1H-pyridine-3-carboxamide]",0.943 nM
16,"C[C@@H]1CN(c2cc(F)c(C3CCNCC3)cc2NC(=O)c2c[nH]c(=O)cc2C(F)(F)F)C[C@H](C)N1C [Example 236, N-[4-fluoro-5-piperidin-4-yl-2-[(3R,5S)-3,4,5-trimethylpiperazin-1-yl]phenyl]-6-oxo-4-(trifluoromethyl)-1H-pyridine-3-carboxamide]",31.1 nM
17,"CN(C)[C@@H]1CCN(c2cc(F)c(-c3ccc(O)nc3)cc2NC(=O)c2c[nH]c(=O)cc2C(F)(F)F)C1 [Example 237, N-[4-fluoro-5-(6-hydroxypyridin-3-yl)-2-[(3R)-3-(dimethylamino)pyrrolidin-1-yl]phenyl]-6-oxo-4-(trifluoromethyl)-1H-pyridine-3-carboxamide]",9.33 nM
18,"CN(C)[C@@H]1CCN(c2cc(F)c(-c3ccc(OCC4CC4)nc3)cc2NC(=O)c2c[nH]c(=O)cc2C(F)(F)F)C1 [Example 238, N-[5-[6-(cyclopropylmethoxy)pyridin-3-yl]-4-fluoro-2-[(3R)-3-(dimethylamino)pyrrolidin-1-yl]phenyl]-6-oxo-4-(trifluoromethyl)-1H-pyridine-3-carboxamide]",5.11 nM
19,"C[C@@H]1CN(c2cc(F)c(C3=CCN(C4CCN(C)CC4)CC3)cc2NC(=O)c2c[nH]c(=O)cc2C(F)(F)F)C[C@H](C)N1C [Example 242, N-[4-fluoro-5-[1-(1-methylpiperidin-4-yl)-3,6-dihydro-2H-pyridin-4-yl]-2-[(3R,5S)-3,4,5-trimethylpiperazin-1-yl]phenyl]-6-oxo-4-(trifluoromethyl)-1H-pyridine-3-carboxamide]",3.49 nM
20,"C[C@@H]1CN(c2cc(F)c(C3=CCN(C(=O)C(C)(C)C)CC3)cc2NC(=O)c2c[nH]c(=O)cc2C(F)(F)F)C[C@H](C)N1C [Example 243, N-[5-[1-(2,2-dimethylpropanoyl)-3,6-dihydro-2H-pyridin-4-yl]-4-fluoro-2-[(3R,5S)-3,4,5-trimethylpiperazin-1-yl]phenyl]-6-oxo-4-(trifluoromethyl)-1H-pyridine-3-carboxamide]",2.16 nM
21,"C[C@@H]1CN(c2cc(F)c(C3CCN(C(=O)C(C)(C)C)CC3)cc2NC(=O)c2c[nH]c(=O)cc2C(F)(F)F)C[C@H](C)N1C [Example 244, N-[5-[1-(2,2-dimethylpropanoyl)piperidin-4-yl]-4-fluoro-2-[(3R,5S)-3,4,5-trimethylpiperazin-1-yl]phenyl]-6-oxo-4-(trifluoromethyl)-1H-pyridine-3-carboxamide]",1.97 nM
22,"C[C@@H]1CN(c2ncc(-c3cc(NC(=O)c4cn(C)c(=O)cc4C(F)(F)F)c(N4C[C@@H](C)N(C)[C@@H](C)C4)cc3F)cn2)C[C@H](C)O1 [Example 246, N-[4-fluoro-5-[2-[(2R,6S)-2,6-dimethylmorpholin-4-yl]pyrimidin-5-yl]-2-[(3S,5R)-3,4,5-trimethylpiperazin-1-yl]phenyl]-1-methyl-6-oxo-4-(trifluoromethyl)pyridine-3-carboxamide]",2.51 nM
23,"C[C@@H]1CN(c2cc(F)c(C3=CCN(S(C)(=O)=O)C3)cc2NC(=O)c2c[nH]c(=O)cc2C(F)(F)F)C[C@H](C)N1C [Example 249, N-[4-fluoro-5-(1-methylsulfonyl-2,5-dihydropyrrol-3-yl)-2-[(3R,5S)-3,4,5-trimethylpiperazin-1-yl]phenyl]-6-oxo-4-(trifluoromethyl)-1H-pyridine-3-carboxamide]",0.665 nM
24,"C[C@@H]1CN(c2cc(F)c(-c3ccc(OCC4CC4)nc3)cc2NC(=O)c2cc(Cl)cc(Cl)c2)C[C@H](C)N1C [Example 250, 3,5-dichloro-N-[5-[6-(cyclopropylmethoxy)pyridin-3-yl]-4-fluoro-2-[(3R,5S)-3,4,5-trimethylpiperazin-1-yl]phenyl]benzamide]",76.9 nM
25,"C[C@@H]1CN(c2cc(F)c(-c3ccc(OCC4CC4)nc3)cc2NC(=O)c2ccc(F)cc2Cl)C[C@H](C)N1C [Example 251, 2-chloro-N-[5-[6-(cyclopropylmethoxy)pyridin-3-yl]-4-fluoro-2-[(3R,5S)-3,4,5-trimethylpiperazin-1-yl]phenyl]-4-fluorobenzamide]",15.6 nM
